From US9040479B2, “HCV NS3 protease inhibitors” (RFS Pharma, LLC, priority 2012, dated 2015)
Where “and” joins values, the source holds several entries; their conditions need not be identical. Equal values may be shown once.

Experiments:
[1] = system: Huh 7 Clone B cells (rRNA); assay: HCV replicon assay, cytotoxicity from rRNA Ct values; assay type: cell-based; details: for rRNA Ct: single replicates
Experimental: (§1) Following five days incubation (37° C., 5% CO2), total cellular RNA was isolated by using versaGene RNA purification kit from Gentra. Replicon RNA and an internal control (TaqMan rRNA control reagents, Applied Biosystems) were amplified in a single step multiplex Real Time RT-PCR Assay. The antiviral effectiveness of the compounds was calculated by subtracting the threshold RT-PCR cycle of the test compound from the threshold RT-PCR cycle of the no-drug control (ΔCt HCV). A ΔCt of 3.3 equals a 1-log reduction (equal to 90% less starting material) in Replicon RNA levels. The cytotoxicity of the compounds was also calculated by using the ΔCt rRNA values. (2′-Me-C) was used as the control. To determine EC90 and IC50 values^2, ΔCt: values were first converted into fraction of starting material^3 and then were used to calculate the % inhibition. […]

[2] = as above; assay type: cell-based; details: human, Huh 7 Clone B cells containing HCV replicon RNA; from rRNA, Huh 7 Clone B cells
Experimental: as §1

[3] = system: HCV replicon RNA in Huh 7 Clone B cells; assay: HCV replicon assay (replicon RNA by real time RT-PCR); assay type: cell-based; details: for HCV Ct: single replicates
Experimental: as §1

HepG2 cells = HepG2 cells incubated with 10 μM; cited from earlier work
[4] = Cytotoxicity assay in PBM cells; assay type: cell-based; details: human, figure in parentheses not defined
Experimental: (§2) The toxicity of the compounds was assessed in Vero, human PBM, CEM (human lymphoblastoid), MT-2, and HepG2 cells, as described previously (see Schinazi R. F., Sommadossi J.-P., Saalmann V., Cannon D. L., Xie M.-Y., Hart G. C., Smith G. A. & Hahn E. F. Antimicrob. Agents Chemother. 1990, 34, 1061-67). Cycloheximide was included as positive cytotoxic control, and untreated cells exposed to solvent were included as negative controls. The cytotoxicity IC50 was obtained from the concentration-response curve using the median effective method described previously (see Chou T.-C. & Talalay P. Adv. Enzyme Regul. 1984, 22, 27-55; Belen'kii M. S. & Schinazi R. F. Antiviral Res. 1994, 25, 1-11).

[5] = Cytotoxicity assay in CEM cells; assay type: cell-based; details: human, CEM (human lymphoblastoid) cells
Experimental: as §2

[6] = Cytotoxicity assay in Vero cells; assay type: cell-based; details: African green monkey, figure in parentheses not defined
Experimental: as §2

[7] = Hepatitis C virus, Huh-7, 120 h, HCV replicon, five days incubation

SMILES: C=C[C@@H]1C[C@]1(NC(=O)[C@@H]1C[C@@H](OC(=O)N2Cc3cccc(F)c3C2)CN1C(=O)[C@@H](NC(=O)C(C)(C)C(F)(F)F)C(C)(C)C)C(=O)NS(=O)(=O)C1CC1 [drawing 12]
- DCt rRNA ([1]; 3 nM): −0.8
- rRNA Ct Average ([1]; 3 nM): 19.2
- rRNA Ct ([1]; 3 nM): 19.2 and 19.3 and 18.9
- DCt rRNA ([1]; 10 nM): −0.9
- rRNA Ct Average ([1]; 10 nM): 19.0
- rRNA Ct ([1]; 10 nM): 19.2 and 18.9 and 19.0
- DCt rRNA ([1]; 33 nM): −0.8
- rRNA Ct Average ([1]; 33 nM): 19.1
- rRNA Ct ([1]; 33 nM): 19.2 (2×) and 19.1
- DCt rRNA ([1]; 100 nM): −1.0
- rRNA Ct Average ([1]; 100 nM): 19.0
- rRNA Ct ([1]; 100 nM): 19.0 and 18.8 and 19.2
- inhibition at 0.003 µM ([1]; Homo sapiens, Huh-7, 3 nM, read-out: % inhib. rRNA): -74.8%
- inhibition at 0.01 µM ([1]; Homo sapiens, Huh-7, 10 nM, read-out: % inhib. rRNA): -89.1%
- inhibition at 0.033 µM ([1]; Homo sapiens, Huh-7, 33 nM, read-out: % inhib. rRNA): -75.6%
- inhibition at 0.1 µM ([1]; Homo sapiens, Huh-7, 100 nM, read-out: % inhib. rRNA): -95.2%
- CC50 at 5 days [2]: > 100 nM
- % Inhit (HCV) ([3]; 3 nM): −33.8%
- DCt HCV ([3]; 3 nM): −0.4
- HCV Ct Average ([3]; 3 nM): 22.8
- HCV Ct ([3]; 3 nM): 22.6 (2×) and 23.2
- % Inhit (HCV) ([3]; 10 nM): 91.7%
- DCt HCV ([3]; 10 nM): 3.6
- HCV Ct Average ([3]; 10 nM): 26.8
- HCV Ct ([3]; 10 nM): 27.0 and 26.9 and 26.6
- % Inhit (HCV) ([3]; 33 nM): 98.0%
- DCt HCV ([3]; 33 nM): 5.7
- HCV Ct Average ([3]; 33 nM): 28.9
- HCV Ct ([3]; 33 nM): 29.2 and 29.1 and 28.4
- % Inhit (HCV) ([3]; 100 nM): 99.4%
- DCt HCV ([3]; 100 nM): 7.3
- HCV Ct Average ([3]; 100 nM): 30.5
- HCV Ct ([3]; 100 nM): 30.3 and 30.5 and 30.8
- EC50 [3, 7]: 7.7 nM
- EC90 [3, 7]: 9.9 nM

SMILES: O=c1[nH]c(=O)n([C@@H]2O[C@H](CO)[C@@H](O)[C@@H]2F)cc1I [fialuridine, 1,2′-deoxy-2′-fluoro-1-D-arabinofuranosly-5-iodo-uracil]
- morphological changes in mitochondria (electron micrographs) (HepG2 cells): enlarged mitochondria with morphological changes consistent with mitochondrial dysfunction

SMILES: C=C[C@@H]1C[C@]1(NC(=O)[C@@H]1C[C@@H](OC(=O)N2Cc3cccc(F)c3C2)CN1C(=O)[C@@H](NC(=O)C(C)(C)C(F)(F)F)C(C)(C)C)C(=O)NS(=O)(=O)C1CC1 [drawing 11]
- IC50 [4]: > 100 µM
- IC50 [5]: 85.1 µM
- IC50 [6]: ≥ 100 µM
